Legend:
[1] = Total emitted dose of the APIs from pMDI prototype formulations, HPLC assay; assay type: physicochemical; set-up: unit not given here; conditions: pMDI Formulation 1-4; for emitted dose, Mean: Mean of ED 1 to ED 8
Description: An optimized HPLC assay method was developed for the assay of prototype formulations.
The total emitted dose from APIs ED 1 to ED 8 was then analyzed using the HPLC Assay.

[2] = Next Generation Impactor (NGI) testing of pMDI prototype formulations; assay type: physicochemical; conditions: for Fine Particle Dose: Stages 3 to MOC; for Actual Emitted dose: Throat stage to MOC
Description: The Next Generation Pharmaceutical Impactor (NGI) testing is performed using Copley and MSP instruments. Emitted dose or Ex-device is calculated as the total dose deposited in the NGI apparatus starting from Throat stage to Micro-orifice collector (MOC). The Fine Particle Dose (FPD) is calculated as the total dose deposited in Stages 3 to MOC of the NGI apparatus. Mass Median Aerodynamic Diameter (MMAD) and Geometric Standard Deviation (GSD) is calculated from aerodynamic particle size distribution of particles in different stages of the NGI apparatus.

SMILES | emitted dose ([1]; ED 7) | emitted dose ([1]; ED 8) | emitted dose, Mean [1] | % Emitted dose ([2]; Formulation 1) [%] | % Fine Particle Dose ([2]; Formulation 1) [%] | GSD ([2]; Formulation 1) | MMAD ([2]; Formulation 1) [µm] | Fine Particle Dose ([2]; Formulation 1) [µg] | Actual Emitted dose ([2]; Formulation 1) [µg] | % Emitted dose ([2]; Formulation 4) [%] | % Fine Particle Dose ([2]; Formulation 4) [%] | GSD ([2]; Formulation 4) | MMAD ([2]; Formulation 4) [µm] | Fine Particle Dose ([2]; Formulation 4) [µg] | Actual Emitted dose ([2]; Formulation 4) [µg] | % Emitted dose ([2]; Formulation 2) [%] | % Fine Particle Dose ([2]; Formulation 2) [%] | GSD ([2]; Formulation 2) | MMAD ([2]; Formulation 2) [µm] | Fine Particle Dose ([2]; Formulation 2) [µg] | further results
CCCCCc1cc(O)c2c(c1)OC(C)(CCC=C(C)C)C=C2 (stereo not shown) [CBC, cannabichromene] | 262.4 | 269.8 | 266.1 | 89 | 36 | 3 | 4.5 | 108.6 | 266.1 | 105 | 36 | 3 | 5.2 | 71.1 | 209.4 | – | – | – | – | – | –
C=C(C)[C@@H]1CCC(C)=C[C@H]1c1c(O)cc(CCCCC)cc1O [CBD, cannabidiol, reference compound] | 301.6 | 304.3 | 298.0 | 104 | 41 | 3 | 4.6 | 122.8 | 312.1 | 96 | 36 | 3 | 4.75 | 109.5 | 288.1 | 96 | 37 | 3 | 4.5 | 111.0 | emitted dose ([1]; ED 1): 287.0; emitted dose ([1]; ED 2): 289.2; emitted dose ([1]; ED 3): 308.0; emitted dose ([1]; ED 4): 316.2; emitted dose ([1]; ED 5): 284.9; emitted dose ([1]; ED 6): 292.6; Actual Emitted dose ([2]; Formulation 2): 288.7 µg; % Emitted dose ([2]; Formulation 3): 101%; % Fine Particle Dose ([2]; Formulation 3): 40%; GSD ([2]; Formulation 3): 3; MMAD ([2]; Formulation 3): 4.4 µm; Fine Particle Dose ([2]; Formulation 3): 120.8 µg; Actual Emitted dose ([2]; Formulation 3): 303.0 µg
C=C(C)[C@@H]1CCC(C)=C[C@H]1c1c(O)cc(CCC)cc1O [CBDV, cannabidivarin] | 265.4 | 278.5 | 272.0 | – | – | – | – | – | – | 98 | 33 | 3 | 5.1 | 66.5 | 195.2 | – | – | – | – | – | % Emitted dose ([2]; Formulation 3): 91%; % Fine Particle Dose ([2]; Formulation 3): 36%; GSD ([2]; Formulation 3): 3; MMAD ([2]; Formulation 3): 4.6 µm; Fine Particle Dose ([2]; Formulation 3): 108.0 µg; Actual Emitted dose ([2]; Formulation 3): 272.0 µg
CCCCCc1cc(O)c(C/C=C(\C)CCC=C(C)C)c(O)c1 [CBG, cannabigerol] | 331.0 | 332.1 | 335.2 | 115 | 43 | 3 | 4.7 | 129.5 | 345.7 | 106 | 34 | 3 | 5.25 | 67.5 | 212.1 | 109 | 39 | 3 | 4.65 | 118.0 | emitted dose ([1]; ED 3): 338.2; emitted dose ([1]; ED 4): 353.3; emitted dose ([1]; ED 5): 323.7; emitted dose ([1]; ED 6): 332.9; Actual Emitted dose ([2]; Formulation 2): 328.3 µg; % Emitted dose ([2]; Formulation 3): 111%; % Fine Particle Dose ([2]; Formulation 3): 43%; GSD ([2]; Formulation 3): 3; MMAD ([2]; Formulation 3): 4.5 µm; Fine Particle Dose ([2]; Formulation 3): 127.5 µg; Actual Emitted dose ([2]; Formulation 3): 331.6 µg
CCCCCc1cc(O)c2c(c1)OC(C)(C)c1ccc(C)cc1-2 [CBN, cannabinol] | 255.7 | 263.5 | 259.6 | – | – | – | – | – | – | 95 | 34 | 3 | 5 | 68.2 | 189.1 | 87 | 35 | 3 | 4.4 | 105.8 | Actual Emitted dose ([2]; Formulation 2): 259.6 µg
C[N+]1(C)CCC(OC(=O)C(O)(c2ccccc2)C2CCCC2)C1 (stereo not shown) [Glycopyrronium, glycopyrronium, reference compound] | 27.0 | 30.2 | 29.0 | 104 | 29 | 2 | 4.9 | 7.8 | 28.0 | 104 | 25 | 2 | 5.65 | 6.8 | 28.1 | 116 | 28 | 2 | 5.15 | 7.7 | emitted dose ([1]; ED 1): 27.6; emitted dose ([1]; ED 2): 28.7; emitted dose ([1]; ED 3): 27.5; emitted dose ([1]; ED 4): 28.5; emitted dose ([1]; ED 5): 30.3; emitted dose ([1]; ED 6): 32.4; Actual Emitted dose ([2]; Formulation 2): 31.4 µg; % Emitted dose ([2]; Formulation 3): 106%; % Fine Particle Dose ([2]; Formulation 3): 31%; GSD ([2]; Formulation 3): 2; MMAD ([2]; Formulation 3): 5.1 µm; Fine Particle Dose ([2]; Formulation 3): 8.3 µg; Actual Emitted dose ([2]; Formulation 3): 28.6 µg

— patent US20240325413A1, “FORMULATIONS FOR THE TREATMENT OF RESPIRATORY DISORDERS” (484 Science Corp, priority 2021, published 2024)
